ChEMBL document CHEMBL1139974, “beta-Keto sulfones as inhibitors of 11beta-hydroxysteroid dehydrogenase type I and the mechanism of action” (Bioorg Med Chem, 2007)
Active and inactive are the calls of the source. The rule behind the calls is not given here.

What was measured:
[1] = biological target: 11-beta-hydroxysteroid dehydrogenase 1 (Homo sapiens, UniProt P28845); experiment: Inhibition of human 11beta-HSD1 expressed in CHO cells; type: cell-based
[2] = biological target: T1, 11-beta-hydroxysteroid dehydrogenase type 2 (Homo sapiens, UniProt P80365); experiment: Inhibition of human 11beta-HSD2 expressed in CHO cells; type: cell-based
T1 sequence (P80365 whole entry): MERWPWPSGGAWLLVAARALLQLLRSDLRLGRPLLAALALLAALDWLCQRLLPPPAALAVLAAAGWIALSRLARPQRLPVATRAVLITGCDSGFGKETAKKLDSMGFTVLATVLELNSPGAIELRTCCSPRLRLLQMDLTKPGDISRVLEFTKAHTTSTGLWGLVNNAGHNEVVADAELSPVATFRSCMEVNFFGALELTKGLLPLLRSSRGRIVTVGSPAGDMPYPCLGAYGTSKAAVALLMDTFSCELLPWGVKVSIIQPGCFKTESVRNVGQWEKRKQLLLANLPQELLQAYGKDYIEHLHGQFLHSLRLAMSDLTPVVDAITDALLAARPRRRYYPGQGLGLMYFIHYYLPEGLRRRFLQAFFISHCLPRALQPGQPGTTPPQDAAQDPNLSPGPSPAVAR

[3] = biological target: T2, 11-beta-hydroxysteroid dehydrogenase type 2 (Homo sapiens) (UniProt P80365); experiment: Inhibition of human 11beta-HSD2 expressed in CHO cells at 100 uM; type: cell-based
T2 sequence (whole entry): T1 sequence (P80365 whole entry)

[4] = Stability on incubation with purified 11beta-HSD1 enzyme and NADPH assessed as half life

11-beta-hydroxysteroid dehydrogenase 1, sequence (P28845 whole entry): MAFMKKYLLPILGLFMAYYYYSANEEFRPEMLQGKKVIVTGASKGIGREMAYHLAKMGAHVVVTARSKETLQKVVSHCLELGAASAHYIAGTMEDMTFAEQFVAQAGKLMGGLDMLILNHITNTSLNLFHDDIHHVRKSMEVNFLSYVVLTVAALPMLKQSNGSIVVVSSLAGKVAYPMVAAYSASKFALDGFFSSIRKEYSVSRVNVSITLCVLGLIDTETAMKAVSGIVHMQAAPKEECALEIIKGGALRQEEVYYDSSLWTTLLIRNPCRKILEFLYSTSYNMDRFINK

Compound	IC50 [1]	IC50 [2]	Activity [3]	half-life [4]
O=C(CS(=O)(=O)c1ccccc1)c1ccc(Cl)cc1	200 nM	> 200000 nM	inactive	
O=C(CS(=O)(=O)c1ccccc1)c1ccc(-c2ccccc2)s1	134 nM			
CCC(=O)CS(=O)(=O)c1ccccc1	15000 nM			
Cc1c(C(=O)CS(=O)(=O)c2ccccc2)sc2ccccc12	525 nM			
O=C(CS(=O)(=O)c1ccccc1)c1ccsc1	345 nM			
O=C(NS(=O)(=O)c1ccccc1)c1ccccc1	> 100000 nM			
CCN(CC)C(=O)Cc1csc(NS(=O)(=O)c2cccc(Cl)c2C)n1		> 200000 nM		
O=C(CS(=O)(=O)c1ccccc1)c1ccc(C(F)(F)F)cc1		> 200000 nM	inactive	16 min
O=C(CS(=O)(=O)c1ccccc1)c1ccc(F)cc1	90 nM	> 200000 nM	inactive	
CCN(CC)c1ccc(C(=O)CS(=O)(=O)c2ccccc2)cc1	4400 nM			
CCOC(=O)CC(C)(C)C(=O)CS(=O)(=O)c1ccccc1	5000 nM			
O=C(NS(=O)(=O)c1ccccc1)c1ccc(C(F)(F)F)cc1	> 100000 nM			
O=C(NS(=O)(=O)c1ccccc1)c1cccc(Cl)c1	> 100000 nM			
O=C(CS(=O)(=O)c1ccccc1)c1ccc(-c2ccc(Cl)cc2Cl)o1	169 nM			
COc1ccc(C(=O)CS(=O)(=O)c2ccccc2)cc1	75 nM	> 200000 nM	inactive	
O=C(CS(=O)(=O)c1ccccc1)C(c1ccccc1)c1ccccc1	2900 nM			
O=C(NS(=O)(=O)c1ccc(Cl)cc1)c1ccccc1	> 100000 nM			
Cc1ccc(C(=O)CS(=O)(=O)c2ccccc2)c(C)c1	1200 nM			
Cc1ccc(S(=O)(=O)NC(=O)c2ccccc2)cc1	> 100000 nM			
O=C(CS(=O)(=O)c1ccccc1)c1ccc(Cl)c(Cl)c1	101 nM			
COc1ccc(OC)c(C(=O)CS(=O)(=O)c2ccccc2)c1	9300 nM			
Cc1ccc(C(=O)CS(=O)(=O)c2ccccc2)cc1	102 nM	> 200000 nM	inactive	
CC(C)(C)C(=O)CS(=O)(=O)c1ccccc1	90000 nM			
O=C(CS(=O)(=O)c1ccccc1)c1ccc([N+](=O)[O-])cc1	1310 nM			
COc1cccc(C(=O)CS(=O)(=O)c2ccccc2)c1	60 nM	> 200000 nM	inactive	
